In US9434743B2, “Indazole derivatives” (TAKEDA PHARMACEUTICAL COMPANY LIMITED, priority 2012, dated 2016):

Assays:
[1] = molecular target: T1, human MetAP2 enzyme (Homo sapiens, UniProt P50579); test: MetAP2 enzyme assay, enzyme complexed with manganese ions; conditions: MetAP2 Mn pIC50, MetAP2 enzyme complexed with manganese ions; Met-AMC substrate at Km
Procedure: DNA encoding the full-length sequence of human MetAP2 enzyme is amplified by PCR and cloned into a pFastBac expression vector (Invitrogen). Recombinant baculovirus incorporating the MetAP2 construct is generated by transposition using the Bac-to-Bac system (Invitrogen). The expression of recombinant protein is carried out by infection of Spodoptera frugiperda Sf9 cells (Invitrogen) in 5 L Wave Bioreactors (Wave Biotech). Recombinant protein is isolated from cellular extracts by binding to an SP Hitrap Fast Flow or SP Sepharose (Sigma) column, and the protein is eluted using a NaCl gradient. Partially purified extracts of MetAP2 are further purified by an AKTA FPLC over a Superdex-200 column (GE). The purity of MetAP2 protein is determined on denaturing SDS-PAGE gel.
The results for each well are expressed as percent inhibition and calculated using the equation:

[2] = molecular target: T1, human MetAP2 enzyme; test: MetAP2 enzyme assay, enzyme complexed with cobalt ions; conditions: MetAP2 Co pIC50, MetAP2 enzyme complexed with cobalt ions; Met-AMC substrate at Km

T1 sequence (P50579 whole entry): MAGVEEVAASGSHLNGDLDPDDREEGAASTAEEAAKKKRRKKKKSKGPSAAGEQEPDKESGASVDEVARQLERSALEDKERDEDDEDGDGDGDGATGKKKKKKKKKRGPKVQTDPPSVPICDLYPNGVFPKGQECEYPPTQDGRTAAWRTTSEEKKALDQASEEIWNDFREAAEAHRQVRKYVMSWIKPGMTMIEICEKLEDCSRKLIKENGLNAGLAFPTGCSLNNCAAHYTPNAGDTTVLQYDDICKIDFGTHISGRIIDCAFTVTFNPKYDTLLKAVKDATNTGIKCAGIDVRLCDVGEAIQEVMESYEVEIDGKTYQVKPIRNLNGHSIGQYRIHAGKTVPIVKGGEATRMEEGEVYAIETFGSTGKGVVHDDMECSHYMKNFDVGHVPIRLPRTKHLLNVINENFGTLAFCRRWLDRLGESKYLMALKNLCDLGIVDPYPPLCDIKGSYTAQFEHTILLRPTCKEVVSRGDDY

SMILES	IC50 [1]	IC50 [2]
CS(=O)(=O)c1ccc(-c2cc(C(F)(F)F)cc3[nH]ncc23)cc1 [Example 347, 4-(4-(methylsulfonyl)phenyl)-6-(trifluoromethyl)-1H-indazole]	6.31 nM	63.1 nM
O=C(NCCO)c1c[nH]c(=O)c(-c2cc(C(F)(F)F)cc3[nH]ncc23)c1 [Example 299, N-(2-hydroxyethyl)-6-oxo-5-(6-(trifluoromethyl)-1H-indazol-4-yl)-1,6-dihydropyridine-3-carboxamide]	7.94 nM	398 nM
Cc1nc2ccccn2c1-c1cc(C(F)(F)F)cc2[nH]ncc12 [Example 150, 4-(2-methylimidazo[1,2-a]pyridin-3-yl)-6-(trifluoromethyl)-1H-indazole]	251 nM	794 nM
COCCNc1ncc(-c2cc(C(F)(F)F)cc3[nH]ncc23)cn1 [Example 293, N-(2-methoxyethyl)-5-(6-(trifluoromethyl)-1H-indazol-4-yl)pyrimidin-2-amine]	6.31 nM	100 nM
NC(=O)c1ccccc1-c1cc(C(F)(F)F)cc2[nH]ncc12 [Example 10, 2-(6-(trifluoromethyl)-1H-indazol-4-yl)benzamide]	31.6 nM	1260 nM
COc1ncc(N)cc1-c1cc(C(F)(F)F)cc2[nH]ncc12 [Example 187, 6-methoxy-5-(6-(trifluoromethyl)-1H-indazol-4-yl)pyridin-3-amine]	7.94 nM	79.4 nM
Cn1ncc(-c2cc(C(F)(F)F)cc3[nH]ncc23)c1N [Example 165, 1-methyl-4-(6-(trifluoromethyl)-1H-indazol-4-yl)-1H-pyrazol-5-amine]	63.1 nM	1000 nM
Cn1cnc2ccc(-c3cc(C(F)(F)F)cc4[nH]ncc34)cc21 [Example 64, 4-(1-methyl-1H-benzo[d]imidazol-6-yl)-6-(trifluoromethyl)-1H-indazole]	10 nM	31.6 nM
Cc1ccc(C(=O)N2CCC(CO)C2)cc1-c1cc(C(F)(F)F)cc2[nH]ncc12 (stereo not shown) [Example 371, (3-(hydroxymethyl)pyrrolidin-1-yl)(4-methyl-3-(6-(trifluoromethyl)-1H-indazol-4-yl)phenyl)methanone]	15.8 nM	50.1 nM
NC(=O)c1ccc2ncc(-c3cc(C(F)(F)F)cc4[nH]ncc34)n2n1 [Example 276, 3-(6-(trifluoromethyl)-1H-indazol-4-yl)imidazo[1,2-b]pyridazine-6-carboxamide]	39.8 nM	398 nM
FC(F)(F)c1cc(-c2cnc3c(c2)OCCN3)c2cn[nH]c2c1 [Example 4, 7-(6-(trifluoromethyl)-1H-indazol-4-yl)-3,4-dihydro-2H-pyrido[3,2-b][1,4]oxazine]	6.31 nM	25.1 nM
Cc1cc(Cn2nc(CO)c(-c3cc(C(F)(F)F)cc4[nH]ncc34)c2C)on1 (single isomer, unassigned) [Example 411, (5-methyl-1-((3-methylisoxazol-5-yl)methyl)-4-(6-(trifluoromethyl)-1H-indazol-4-yl)-1H-pyrazol-3-yl)methanol]	7.94 nM	6.31 nM
Cc1nn(CC(=O)N2CC(O)C2)c(C)c1-c1cc(C(F)(F)F)cc2[nH]ncc12 [Example 366, 2-(3,5-dimethyl-4-(6-(trifluoromethyl)-1H-indazol-4-yl)-1H-pyrazol-1-yl)-1-(3-hydroxyazetidin-1-yl)ethanone]	15.8 nM	50.1 nM
CNC(=O)c1ccc(-c2cc(C(F)(F)F)cc3[nH]ncc23)cc1 [Example 117, N-methyl-4-(6-(trifluoromethyl)-1H-indazol-4-yl)benzamide]	3.16 nM	15.8 nM
O=C1Cc2cccc(-c3cc(C(F)(F)F)cc4[nH]ncc34)c2N1 [Example 136, 7-(6-(trifluoromethyl)-1H-indazol-4-yl)indolin-2-one]	12.6 nM	158 nM
O=C(c1cc(-c2cc(C(F)(F)F)cc3[nH]ncc23)ccn1)N1CC(O)C1 [Example 385, (3-hydroxyazetidin-1-yl)(4-(6-(trifluoromethyl)-1H-indazol-4-yl)pyridin-2-yl)methanone]	5.01 nM	79.4 nM
Cc1[nH]c(=O)[nH]c(=O)c1-c1cc(C(F)(F)F)cc2[nH]ncc12 [Example 204, 6-methyl-5-(6-(trifluoromethyl)-1H-indazol-4-yl)pyrimidine-2,4(1H,3H)-dione]	15.8 nM	794 nM
FC(F)(F)c1cc(-c2cnn3ccccc23)c2cn[nH]c2c1 [Example 41, 4-(pyrazolo[1,5-a]pyridin-3-yl)-6-(trifluoromethyl)-1H-indazole]	6.31 nM	25.1 nM
Cc1nc2[nH]cnc2cc1-c1cc(C(F)(F)F)cc2[nH]ncc12 [Example 195, 5-methyl-6-(6-(trifluoromethyl)-1H-indazol-4-yl)-3H-imidazo[4,5-b]pyridine]	6.31 nM	25.1 nM
Cc1nnc(-c2cccc(-c3cc(C(F)(F)F)cc4[nH]ncc34)c2)o1 [Example 37, 2-methyl-5-(3-(6-(trifluoromethyl)-1H-indazol-4-yl)phenyl)-1,3,4-oxadiazole]	7.94 nM	39.8 nM

SMILES	IC50 [1]	IC50 [2]
COCC(=O)Nc1ccc(-c2cc(C(F)(F)F)cc3[nH]ncc23)c(C)n1 [Example 258, 2-methoxy-N-(6-methyl-5-(6-(trifluoromethyl)-1H-indazol-4-yl)pyridin-2-yl)acetamide]	7.94 nM	25.1 nM
CNC(=O)c1ccc(F)cc1-c1cc(C(F)(F)F)cc2[nH]ncc12 [Example 102, 4-fluoro-N-methyl-2-(6-(trifluoromethyl)-1H-indazol-4-yl)benzamide]	79.4 nM	631 nM
COc1cc(C(=O)N2CCOCC2)ccc1-c1cc(C(F)(F)F)cc2[nH]ncc12 [Example 318, (3-methoxy-4-(6-(trifluoromethyl)-1H-indazol-4-yl)phenyl)(morpholino)methanone]	12.6 nM	39.8 nM
O=c1[nH]cc(-c2cc(C(F)(F)F)cc3[nH]ncc23)c(=O)[nH]1 [Example 54, 5-(6-(trifluoromethyl)-1H-indazol-4-yl)pyrimidine-2,4(1H,3H)-dione]	6.31 nM	398 nM
CC(C)Oc1ncccc1-c1cc(C(F)(F)F)cc2[nH]ncc12 [Example 143, 4-(2-isopropoxypyridin-3-yl)-6-(trifluoromethyl)-1H-indazole]	15.8 nM	63.1 nM
FC(F)(F)c1cc(-c2ccc(N3CCOCC3)nc2)c2cn[nH]c2c1 [Example 89, 4-(5-(6-(trifluoromethyl)-1H-indazol-4-yl)pyridin-2-yl)morpholine]	3.98 nM	20 nM
CS(=O)(=O)c1cncc(-c2cc(C(F)(F)F)cc3[nH]ncc23)c1 [Example 105, 4-(5-(methylsulfonyl)pyridin-3-yl)-6-(trifluoromethyl)-1H-indazole]	10 nM	316 nM
COc1ccc(C(=O)N2CCOCC2)cc1-c1cc(C(F)(F)F)cc2[nH]ncc12 [Example 267, (4-methoxy-3-(6-(trifluoromethyl)-1H-indazol-4-yl)phenyl)(morpholino)methanone]	10 nM	39.8 nM
CN1CCN(C(=O)c2ccc(-c3cc(C(F)(F)F)cc4[nH]ncc34)cn2)CC1 [Example 271, (4-methylpiperazin-1-yl)(5-(6-(trifluoromethyl)-1H-indazol-4-yl)pyridin-2-yl)methanone]	12.6 nM	316 nM
Nc1cc(Cl)cnc1-c1cc(C(F)(F)F)cc2[nH]ncc12 [Example 216, 5-chloro-2-(6-(trifluoromethyl)-1H-indazol-4-yl)pyridin-3-amine]	10 nM	398 nM
COc1ccc(CC(N)=O)cc1-c1cc(C(F)(F)F)cc2[nH]ncc12 [Example 350, 2-(4-methoxy-3-(6-(trifluoromethyl)-1H-indazol-4-yl)phenyl)acetamide]	7.94 nM	31.6 nM
COc1cc(C)c(-c2cc(C(F)(F)F)cc3[nH]ncc23)cn1 [Example 253, 4-(6-methoxy-4-methylpyridin-3-yl)-6-(trifluoromethyl)-1H-indazole]	10 nM	63.1 nM
CNC(=O)c1ccc(F)c(-c2cc(C(F)(F)F)cc3[nH]ncc23)c1 [Example 114, 4-fluoro-N-methyl-3-(6-(trifluoromethyl)-1H-indazol-4-yl)benzamide]	6.31 nM	50.1 nM
CN1CCN(C(=O)c2cccc(-c3cc(C(F)(F)F)cc4[nH]ncc34)c2)CC1 [Example 84, (4-methylpiperazin-1-yl)(3-(6-(trifluoromethyl)-1H-indazol-4-yl)phenyl)methanone]	3.16 nM	20 nM
CCOCn1ccnc1-c1cc(C(F)(F)F)cc2[nH]ncc12 [Example 145, 4-(1-(ethoxymethyl)-1H-imidazol-2-yl)-6-(trifluoromethyl)-1H-indazole]	631 nM	3980 nM
N#Cc1ccc2ncc(-c3cc(C(F)(F)F)cc4[nH]ncc34)n2c1 [Example 153, 3-(6-(trifluoromethyl)-1H-indazol-4-yl)imidazo[1,2-a]pyridine-6-carbonitrile]	25.1 nM	200 nM
Cc1c(-c2cc(C(F)(F)F)cc3[nH]ncc23)cnn1-c1ccccc1 [Example 71, 4-(5-methyl-1-phenyl-1H-pyrazol-4-yl)-6-(trifluoromethyl)-1H-indazole]		100 nM
Cc1c(-c2cc(C(F)(F)F)cc3[nH]ncc23)cnn1-c1ccccc1 [Example 70, 4-(5-methyl-1-phenyl-1H-pyrazol-4-yl)-6-(trifluoromethyl)-1H-indazole]		39.8 nM
Cc1nn(C)c2cc(-c3cc(C(F)(F)F)cc4[nH]ncc34)ccc12 [Example 67, 1′,3′-dimethyl-6-(trifluoromethyl)-1H,1′H-4,6′-biindazole]		20 nM
Cc1nn(C)c2cc(-c3cc(C(F)(F)F)cc4[nH]ncc34)ccc12 [Example 68, 1′,3′-dimethyl-6-(trifluoromethyl)-1H,1′H-4,6′-biindazole]		25.1 nM
